Assay results taken from paper PMC11546719, “Immune Modulatory Profile of the Pateamines PatA and Des-Methyl Des-Amino PatA” (International Journal of Molecular Sciences, 2024).

Key:
[1] = tested on: T cells; assay: Energy metabolism (Seahorse OCR/ECAR) in T cells; assay type: cell-based, human; settings: 5 days, PatA, DMDA 0.25-0.5 nM, silvestrol 5 nM
Protocol: The determination of the energy metabolism was performed as described previously. Briefly, for the analysis of the extracellular acidification rate (ECAR) and the oxygen consumption rate (OCR) for human B cells, Tcells, M1 MdMs and M2 MdMs, the Seahorse XFe96 FluxPak (Agilent, Waldbronn, Germany) was used as recommended by the manufacturer. MdMs were polarized to M1 or M2 MdMs in the presence of PatA (0.5, 2.5, 5 nM), DMDA (0.5, 2.5, 5 nM) or vehicle (DMSO) for 48 h or 24 h, respectively. T cells were activated in the presence of PatA (0.25, 0.5 nM), DMDA (0.25, 0.5 nM), silvestrol or DMSO. B cells were activated in the presence of PatA (0.25, 0.5 nM), DMDA (0.25, 0.5 nM), silvestrol (5 nM) or rapamycin (10 ng/mL positive control). Cells were washed with Seahorse XF RPMI medium pH 7.4 (Agilent, Waldbronn, Germany) and OCR and ECAR were measured as octuplicates for a period of 160 min using the Seahorse XFe96 Analyzer (Agilent, Waldbronn, Germany) and analyzed by Wave Software 2.6.3.8 (Agilent, Waldbronn, Germany). The relative values were calculated by relating the OCR or ECAR values obtained after 50 min to the values of the vehicle control (not stimulated).

[2] = tested on: B cells, T cells, M1 MdMs, M2 MdMs; assay: Immune cell viability, formazan-based assay; set-up: species or system human; settings: 48 h
Protocol: nitrogen, and the residue dissolved in 50 µl methanol. The analysis was performed with an Agilent 1290 Inﬁnity LC system (Agilent, Waldbronn, Germany) coupled to a hybrid triple quadrupole linear ion trap mass spectrometer QTRAP 6500+ (Sciex, Darmstadt, Ger-many) equipped with a Turbo-V-source operating in positive electrospray ionization mode. The chromatographic separation was carried out using an Acquity UPLC BEH C18 column (100x 2.1 mm, 1.7 µm; Waters, Eschborn, Deutschland), maintained at 40 °C. Mobile Phase A was 0.1% formic acid with 20 mM ammonium formate and mobile Phase B was meth-anol with 0.1% formic acid with 20 mM ammonium formate. A gradient program was em-ployed at a flow rate of 400 µl/min, as follows: initial 20% B to 0.5 min, increasing to 90% B from 0.5 to 4.5 min, with a hold time of 1.0 min. Re-equilibration was performed by reducing to 20% B from 5.5 to 5.6 min, and then holding at 20% B until 7.0 min.
For analysis and quantiﬁcation of all compounds, Analyst Software 1.7.1 and Multi-quant Software 3.0.3 (both Sciex, Darmstadt, Germany) were used. The precursor-to-prod-uct ion transitions used for quantiﬁcation were: m/z 237.1 → m/z 194.1 for carbamazepine, […]
482.2 for DMDA, and […]. […]
Supplementary Figure S1. […] Viability was determined by a formazan-based assay. […]

| SMILES | Energy metabolism: glycolysis (ECAR) and oxidative phosphorylation (OCR) [1] | Cytotoxicity in immune cell types [2] |
| --- | --- | --- |
| CC(/C=C/C(C)=C/[C@@H]1Cc2nc(cs2)[C@@H](C)C[C@@H](N)CC(=O)O[C@@H](C)C/C(C)=C/C=C\C(=O)O1)=C\CN(C)C [PatA, pateamine A] | did not alter the energy metabolism | – |
| CC(/C=C/C(C)=C/[C@@H]1Cc2nc(cs2)CCCCC(=O)O[C@@H](C)C/C(C)=C/C=C\C(=O)O1)=C\CN(C)C [DMDA, des-methyl des-amino pateamine A] | did not alter the energy metabolism | less cytotoxic in comparison with PatA |
